This is an account of results in patent US8193180B2, “N-amino tetrahydrothiazine derivatives, method of manufacture and use” (Women & Infants Hospital, priority 2007, dated 2012).

Some results are limits rather than exact numbers.

Data set [1] deals with Stage IV pancreatic cancer. The data set can be described thus: Treatment of pancreatic cancer, patient case (Example 7). It is filed as in vivo, human. The note with it: 10 mg/kg/day tablets every other day for 30 days (15 doses). On the procedure:
A subject presents with Stage IV pancreatic cancer. The subject is treated daily with 10 mg/kg/day of N-(3-methyl-1,1-dioxo-1,4-thiazinan-4-yl)-1-[1-phenyl, 1-acetic acid]methane by tablets every other day for 30 consecutive days (15 doses). Upon examination, cancer involvement is found reduced by about 20%.

In data set [2] the test system is Stage V Alzheimer's disease. The data set can be described thus: Alzheimer treatment, patient case (second Example 10). The class given is in vivo, human. The following applies: 5 mg/kg oral daily, chronically, six month period. On the procedure: A subject presents with Stage V Alzheimer's disease. The subject is treated daily with 5 mg/kg oral doses of N-(3-methyl-1,1-dioxo-1,4-thiazinan-4-yl)-1-[3,4,5-trimethoxy phenyl sulfonyl], chronically.

Data set [3] has as its system SMS-KCNR neuroblastoma cells. The data set can be described thus: cells. The following applies: Homo sapiens, 48 h, read-out: cell viability, mean value. On the procedure:
SMS-KCNR neuroblastoma cells were incubated for 48 hours with increasing levels of either nifurtimox or RKS-2-62, and cytotoxicity was determined using the Calcein AM cell viability assay. […] SMSKCNR cells were plated in 48 wells plates and treated with 0-20 μg/mL of either RKS-2-62 or nifurtimox for 48 hours. Cell viability was assessed using Calcein AM assay.

Data set [4] concerns DAOY medulloblastoma cells. Briefly: Calcein AM cell viability assay, DAOY medulloblastoma cells. The class given is cell-based. The note with it: 48 hours. The text has this:
(§1) For the D283 cell line, viability after exposure to RKS was decreased compared to nifurtimox (P=0.008), with similar results for the DAOY cell line (P=0.026).

In data set [5] the test system is D283 medulloblastoma cells. The data set can be described thus: Calcein AM cell viability assay, D283 medulloblastoma cells. It is filed as cell-based. The following applies: 48 hours.
Description: as §1

In data set [6] the test system is SMSKCNR cells. Briefly: Reactive oxygen species, carboxylated DCF flow cytometry. The class given is cell-based, human. The note with it: 90 minutes incubation, vs control. As to the method: RKS-2-62 increases reactive oxygen species in neuroblastoma cells. SMSKCNR cells treated with RKS-2-62 were incubated with carboxyl-DCF. SMSKCNR cells were grown in T25 flasks and incubated in RKS-2-62 for 90 minutes prior to treatment with carboxylated DCF. Cells were collected and analyzed by flow cytometry. […] Control is the left hand peak in grey. RKS-2-62 is the right hand peak. Oxidation of DCF by reactive oxygen species (ROS) causes increased fluorescence, and a lower concentration of RKS-2-62 than of nifurtimox was required to achieve the same effect.
In general terms: In flow cytometry, cells or beads pass a laser one at a time.

For data set [7], the system named is SMSKCNR cells. Briefly: Neuroblastoma xenograft mouse model, oral dosing in food pellets. The note with it: 3 weeks. On the procedure:
Nude mice were injected subcutaneously in the flank with 10^7 SMSKCNR cells and tumors were allowed to grow for 7 days. Mice were then fed either control food pellets or pellets containing 50, 100, or 150 mg/kg/day of RKS-2-62 for 3 weeks (4 mice per group). Tumors were harvested and weighed.

Data set [8] in a line: Chloroform/water partition test. It is filed as physicochemical. As to the method: In addition, RKS-2-26 is lipid soluble and likely to cross the blood brain barrier. […] Then 1 mL of distilled water was added and vortexed.
Data set [9] deals with Stage IV neuroblastoma. Briefly: Treatment of neuroblastoma, patient case (Example 5). The class given is in vivo, human. The text has this:
A person presents with Stage IV neuroblastoma. […] Upon examination, tumor mass is found reduced by about 50%.

Data set [10] relates to breast cancer. Briefly: Breast cancer prophylaxis, patient case (Example 8). The note with it: 5 mg/kg daily by tablets for 48 months, BRCA 1 and 2 markers. It is filed as in vivo, human. On the procedure:
A subject presents normally, but has BRCA 1 and 2 markers as well as a family history of breast cancer. The subject is treated daily with 5 mg/kg of N-(3-methyl-1,1-dioxo-1,4-thiazinan-4-yl)-1-[5,6-dimethoxy coumarin-2-yl]methanimine by tablets for 48 months.

Data set [11] relates to end stage liver cancer. Briefly: Liver cancer treatment, patient case (Example 9). The following applies: 10 mg/kg daily orally or IV for 48 days. It is filed as in vivo, human. On the procedure: A subject presents with end stage liver cancer refractory to all other treatments. The subject is treated daily with 10 mg/kg of N-(3-methyl-1,1-dioxo-1,4-thiazinan-4-yl)-1-[1-phenyl, 1-furan-2-yl] orally or IV for 48 days.

Data set [12] deals with stage III ovarian cancer. The data set can be described thus: Ovarian cancer treatment, patient case (Example 10). It is filed as in vivo, human. The following applies: 10 mg/kg daily orally or IV for 48 days. On the procedure: A subject presents with recurrent/progressive stage III ovarian cancer refractory to all other treatments. The subject is treated daily with 10 mg/kg of N-(3-methyl-1,1-dioxo-1,4-thiazinan-4-yl)-1-[3-chloro, 5-bromo coumarin-2-carbonyl] orally or IV for 48 days.

Data set [13] deals with Stage IV breast cancer. Briefly: Treatment of breast cancer, patient case (Example 6). It is filed as in vivo, human. The following applies: 10 mg/kg/day orally or IV daily for 15 consecutive days. As to the method: A subject presents with Stage IV breast cancer and axillary lymph node involvement. The subject is treated with 10 mg/kg/day of N-(3-methyl-1,1-dioxo-1,4-thiazinan-4-yl)-1-[1-phenyl, 1-methanol]methane orally or IV daily for 15 consecutive days. Upon examination, cancer involvement is found reduced by about 20%.

As to `CC1CS(=O)(=O)CCN1NC(CC(=O)O)c1ccccc1` (stereo not shown) [N-(3-methyl-1,1-dioxo-1,4-thiazinan-4-yl)-1-[1-phenyl, 1-acetic acid]methane], the “reduction of cancer involvement” value in data set [1] was “about 20%”.

Turning to `COc1cc(S(=O)(=O)NN2CCS(=O)(=O)CC2C)cc(OC)c1OC` (stereo not shown) [N-(3-methyl-1,1-dioxo-1,4-thiazinan-4-yl)-1-[1-(3,4,5-trimethoxyphenylsulfonyl]], the “progression of the disease” value in data set [2] is given as “substantially no progression of the disease is noted”.

Usually viability stands for the share of living cells, or the viability signal relative to a control. `CC1CS(=O)(=O)CCN1N=Cc1c(Cl)c2cc(Br)ccc2oc1=O` (stereo not shown) [RKS-2-62]: in [3], the viability at 5 µg/mL stood at 51.9%. The “growth inhibition compared with nifurtimox” value in data set [4] (0-10 μg/mL) was “inhibited the growth of both cell lines in a dose-dependent fashion and to a greater extent than nifurtimox”; in [5] (0-10 μg/mL), “inhibited the growth of both cell lines in a dose-dependent fashion and to a greater extent than nifurtimox”. For the same compound, the cytotoxicity at 10 µg/mL was above 80% in data set [4] (Homo sapiens, 10 μg/mL, read-out: decrease of viability) and above 80% in data set [5] (10 μg/mL, read-out: decrease of viability). In [6], the “production of ROS (DCF fluorescence)” value was “increase in production of ROS”. The “decrease of tumor weight compared to the control group” value in data set [7] (50 mg/kg/day oral in food pellets), in data set [7] (100 mg/kg/day oral in food pellets) and in [7] (150 mg/kg/day oral in food pellets) was “greater than 75%” throughout. Further, in data set [7] (mice, oral), the “tolerability compared with nifurtimox” value is on record as “better tolerated in mice than nifurtimox”. For the same compound, the lipid solubility result in data set [8] was “lipid soluble”. Further, the “distribution between chloroform layer and aqueous layer” value in [8] (10 μg/μL in chloroform, 1 mL distilled water added, vortexed) was “remained solely in the chloroform layer and not the aqueous layer”. Moreover, in data set [8] (solution of 10 μg/μL), the solubility in chloroform result is listed as “shown to dissolve in chloroform”.

For the compound `CC1CS(=O)(=O)CCN1NC(c1ccccc1)c1ccccc1` (stereo not shown) [N-(3-methyl-1,1-dioxo-1,4-thiazinan-4-yl)-1-[1,1-diphenyl]methane], the tumor response result in [9] (15 mg/kg/day orally or IV for 2 weeks) was “tumor stabilization”. Moreover, the “reduction of tumor mass” value in [9] (with further addition of cyclophosphamide and topotecan, 8 weeks) was “about 50%”.

Consider `COc1cc2cc(C=NN3CCS(=O)(=O)CC3C)c(=O)oc2cc1OC` (stereo not shown), for which the “cancer involvement upon examination” value in data set [10] was “no cancer involvement is found”.

On to `CC1CS(=O)(=O)CCN1/N=C\c1ccc([N+](=O)[O-])o1` (stereo not shown) [nifurtimox, reference compound], for which, in data set [3], the viability at 5 µg/mL stood at 88.4%.

`CC1CS(=O)(=O)CCN1N(c1ccccc1)c1ccco1` (stereo not shown) [N-(3-methyl-1,1-dioxo-1,4-thiazinan-4-yl)-1-[1-phenyl, 1-furan-2-yl]]: in data set [11], the “liver cancer involvement upon examination” value is given as “no liver cancer involvement is found”.

As for `CC1CS(=O)(=O)CCN1NC(=O)c1c(Cl)c2cc(Br)ccc2oc1=O` (stereo not shown), in [12], the “tumor growth upon examination” value is given as “no further tumor growth is noted”.

As for `CC1CS(=O)(=O)CCN1NC(CO)c1ccccc1` (stereo not shown) [N-(3-methyl-1,1-dioxo-1,4-thiazinan-4-yl)-1-[1-phenyl, 1-methanol]methane], the “reduction of cancer involvement” value in data set [13] was “about 20%”.
